In patent publication US20200239530A1, “COMPOUNDS AND METHODS OF MODULATING PROTEIN DEGRADATION” (Vividion Therapeutics, Inc., priority 2017, published 2020):
Read-outs that look alike come from different tables or passages of the source.

Key:
Test in all cases: Cysteine liganding, probe competition
Assay type in all cases: binding
[1] = biological target: T1, UniProt O43791 (Homo sapiens, UniProt O43791)
T1 construct: 200 μL of lysate containing 5 mg/ml proteome was treated with 2 μL of 100× compound stock; endogenous in cells
Source text: (§1) The following 96-well sample prep protocol was used for sample preparation.

[2] = biological target: T2, UniProt Q96JY6 (Homo sapiens, UniProt Q96JY6)
T2 construct: 200 μL of lysate containing 5 mg/ml proteome was treated with 2 μL of 100× compound stock; endogenous in cells
T2 sequence (Q96JY6 1-352): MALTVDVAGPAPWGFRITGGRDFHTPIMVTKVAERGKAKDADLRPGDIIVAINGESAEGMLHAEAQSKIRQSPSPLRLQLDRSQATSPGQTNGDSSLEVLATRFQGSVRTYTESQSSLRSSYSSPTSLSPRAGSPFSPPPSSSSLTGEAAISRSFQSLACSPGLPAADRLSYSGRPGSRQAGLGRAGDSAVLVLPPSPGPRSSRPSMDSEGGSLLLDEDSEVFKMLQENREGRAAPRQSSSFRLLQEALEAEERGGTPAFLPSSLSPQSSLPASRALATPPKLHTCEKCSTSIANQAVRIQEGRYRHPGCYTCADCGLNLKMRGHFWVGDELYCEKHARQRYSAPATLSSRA
Source text: as §1

[3] = biological target: T3, UniProt Q96BF6 (Homo sapiens, UniProt Q96BF6); conditions: for inhibition at 100 µM / inhibition at 500 µM: read-out: percent inhibition
T3 construct: Cells were resuspended in cold PBS on ice and sonicated with a probe sonicator to achieve lysis; endogenous in cells
T3 sequence (Q96BF6 1-587): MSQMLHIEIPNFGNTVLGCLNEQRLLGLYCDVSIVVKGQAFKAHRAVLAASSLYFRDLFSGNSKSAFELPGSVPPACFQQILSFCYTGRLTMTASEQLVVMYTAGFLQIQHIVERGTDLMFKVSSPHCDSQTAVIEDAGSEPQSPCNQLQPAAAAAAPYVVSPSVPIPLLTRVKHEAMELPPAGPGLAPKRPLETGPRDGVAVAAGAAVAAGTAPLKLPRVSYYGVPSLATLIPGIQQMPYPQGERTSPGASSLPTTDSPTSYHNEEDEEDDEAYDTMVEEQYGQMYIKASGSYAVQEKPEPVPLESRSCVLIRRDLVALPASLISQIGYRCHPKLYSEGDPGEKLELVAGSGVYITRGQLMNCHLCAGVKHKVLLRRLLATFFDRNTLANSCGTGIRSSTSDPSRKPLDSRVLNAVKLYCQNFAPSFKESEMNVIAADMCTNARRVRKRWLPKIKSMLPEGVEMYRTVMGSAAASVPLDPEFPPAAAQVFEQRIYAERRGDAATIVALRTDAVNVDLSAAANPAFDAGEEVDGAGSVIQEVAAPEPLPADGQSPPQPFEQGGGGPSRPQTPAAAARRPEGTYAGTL
Source text: as §1

[4] = biological target: T4, UniProt Q96DX4 (Homo sapiens, UniProt Q96DX4); conditions: read-out: percent_inhibition
T4 construct: 200 μL of lysate containing 5 mg/ml proteome was treated with 2 μL of 100× compound stock; endogenous in cells
Source text: as §1

[5] = biological target: T5, UniProt O00623 (Homo sapiens, UniProt O00623)
T5 construct: 200 μL of lysate containing 5 mg/ml proteome was treated with 2 μL of 100× compound stock; endogenous in cells
Source text: as §1

[6] = biological target: T6, UniProt O43255 (Homo sapiens, UniProt O43255)
T6 construct: 200 μL of lysate containing 5 mg/ml proteome was treated with 2 μL of 100× compound stock; endogenous in cells
T6 sequence (O43255 1-324): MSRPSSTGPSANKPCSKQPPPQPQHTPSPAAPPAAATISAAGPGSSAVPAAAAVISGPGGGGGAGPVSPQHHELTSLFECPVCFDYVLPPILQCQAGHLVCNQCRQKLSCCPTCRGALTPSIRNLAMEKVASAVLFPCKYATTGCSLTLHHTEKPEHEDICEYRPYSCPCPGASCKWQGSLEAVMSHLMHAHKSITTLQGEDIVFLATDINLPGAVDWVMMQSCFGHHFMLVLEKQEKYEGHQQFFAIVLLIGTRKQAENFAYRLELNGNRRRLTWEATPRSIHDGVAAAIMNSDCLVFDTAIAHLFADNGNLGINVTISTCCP
Source text: as §1

[7] = biological target: T7, UniProt P63208 (Homo sapiens, UniProt P63208); conditions: for percent_inhibition: 100 uM; for inhibition at 100 µM: read-out: percent_inhibition
T7 construct: 200 μL of lysate containing 5 mg/ml proteome was treated with 2 μL of 100× compound stock; endogenous in cells
Source text: as §1

[8] = biological target: T8, UniProt O14543 (Homo sapiens, UniProt O14543)
T8 construct: 200 μL of lysate containing 5 mg/ml proteome was treated with 2 μL of 100× compound stock; endogenous in cells
Source text: as §1

[9] = biological target: T9, UniProt Q8TEL6 (Homo sapiens, UniProt Q8TEL6)
T9 construct: 200 μL of lysate containing 5 mg/ml proteome was treated with 2 μL of 100× compound stock; endogenous in cells
T9 sequence (Q8TEL6 1-797): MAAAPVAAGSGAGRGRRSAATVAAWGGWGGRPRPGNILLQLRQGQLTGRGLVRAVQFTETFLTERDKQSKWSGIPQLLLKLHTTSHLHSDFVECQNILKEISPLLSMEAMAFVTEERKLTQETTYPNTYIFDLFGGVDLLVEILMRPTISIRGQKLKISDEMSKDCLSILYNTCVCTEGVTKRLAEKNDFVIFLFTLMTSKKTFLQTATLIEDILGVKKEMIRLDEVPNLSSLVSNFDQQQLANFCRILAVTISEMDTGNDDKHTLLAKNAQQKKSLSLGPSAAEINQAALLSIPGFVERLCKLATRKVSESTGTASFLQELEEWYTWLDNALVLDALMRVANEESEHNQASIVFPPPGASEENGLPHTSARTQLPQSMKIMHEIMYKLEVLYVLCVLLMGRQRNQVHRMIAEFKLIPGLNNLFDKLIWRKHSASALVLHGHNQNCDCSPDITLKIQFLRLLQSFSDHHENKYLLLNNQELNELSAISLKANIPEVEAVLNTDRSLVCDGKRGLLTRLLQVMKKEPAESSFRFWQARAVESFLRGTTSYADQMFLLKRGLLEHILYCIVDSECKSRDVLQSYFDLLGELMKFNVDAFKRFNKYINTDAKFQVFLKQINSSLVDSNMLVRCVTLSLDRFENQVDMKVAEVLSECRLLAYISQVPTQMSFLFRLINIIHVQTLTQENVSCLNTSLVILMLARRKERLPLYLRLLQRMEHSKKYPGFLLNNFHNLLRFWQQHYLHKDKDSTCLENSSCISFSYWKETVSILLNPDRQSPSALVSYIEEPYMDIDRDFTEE
Source text: as §1

[10] = biological target: T10, UniProt P49792 (Homo sapiens, UniProt P49792); conditions: 500 uM
T10 construct: 200 μL of lysate containing 5 mg/ml proteome was treated with 2 μL of 100× compound stock; endogenous in cells
Source text: as §1

[11] = biological target: T11, UniProt Q13049 (Homo sapiens, UniProt Q13049)
T11 construct: 200 μL of lysate containing 5 mg/ml proteome was treated with 2 μL of 100× compound stock; endogenous in cells
Source text: as §1

[12] = read-out: KB05_100 uM_percent_inhibition
[13] = 500 uM, read-out: KB05_500 uM_percent_inhibition

T7 sequence (P63208 whole entry, change not shown): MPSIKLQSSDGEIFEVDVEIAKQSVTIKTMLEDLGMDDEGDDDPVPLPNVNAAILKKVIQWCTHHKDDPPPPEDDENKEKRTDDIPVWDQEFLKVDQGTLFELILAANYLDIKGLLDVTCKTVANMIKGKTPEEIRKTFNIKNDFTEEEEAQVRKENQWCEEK
T5 sequence (O00623 whole entry, change not shown): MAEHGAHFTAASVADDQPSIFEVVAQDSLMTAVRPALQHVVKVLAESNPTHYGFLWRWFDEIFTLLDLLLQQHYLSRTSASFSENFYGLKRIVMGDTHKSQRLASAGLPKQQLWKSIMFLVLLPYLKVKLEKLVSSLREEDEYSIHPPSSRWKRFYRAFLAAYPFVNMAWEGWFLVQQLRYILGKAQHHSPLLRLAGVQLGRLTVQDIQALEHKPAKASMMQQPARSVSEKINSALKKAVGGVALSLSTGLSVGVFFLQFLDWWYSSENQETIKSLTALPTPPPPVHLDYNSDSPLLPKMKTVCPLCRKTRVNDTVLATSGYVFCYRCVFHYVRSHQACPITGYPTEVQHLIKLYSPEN
T4 sequence (Q96DX4 17-576, change not shown): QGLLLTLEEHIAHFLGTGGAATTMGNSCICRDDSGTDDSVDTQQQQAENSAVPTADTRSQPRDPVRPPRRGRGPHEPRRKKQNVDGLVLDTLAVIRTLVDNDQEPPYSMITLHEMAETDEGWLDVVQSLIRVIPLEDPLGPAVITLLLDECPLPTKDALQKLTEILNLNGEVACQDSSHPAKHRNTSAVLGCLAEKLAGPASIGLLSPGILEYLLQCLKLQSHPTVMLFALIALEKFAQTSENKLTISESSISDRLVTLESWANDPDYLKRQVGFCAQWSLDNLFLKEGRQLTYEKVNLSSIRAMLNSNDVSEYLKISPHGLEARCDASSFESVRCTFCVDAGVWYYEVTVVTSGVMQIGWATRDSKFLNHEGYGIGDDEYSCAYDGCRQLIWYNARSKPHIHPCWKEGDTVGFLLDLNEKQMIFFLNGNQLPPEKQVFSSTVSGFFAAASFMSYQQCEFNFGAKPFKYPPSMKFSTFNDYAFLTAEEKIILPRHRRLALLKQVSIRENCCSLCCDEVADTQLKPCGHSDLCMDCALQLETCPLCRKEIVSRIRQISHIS
T11 sequence (Q13049 whole entry, change not shown): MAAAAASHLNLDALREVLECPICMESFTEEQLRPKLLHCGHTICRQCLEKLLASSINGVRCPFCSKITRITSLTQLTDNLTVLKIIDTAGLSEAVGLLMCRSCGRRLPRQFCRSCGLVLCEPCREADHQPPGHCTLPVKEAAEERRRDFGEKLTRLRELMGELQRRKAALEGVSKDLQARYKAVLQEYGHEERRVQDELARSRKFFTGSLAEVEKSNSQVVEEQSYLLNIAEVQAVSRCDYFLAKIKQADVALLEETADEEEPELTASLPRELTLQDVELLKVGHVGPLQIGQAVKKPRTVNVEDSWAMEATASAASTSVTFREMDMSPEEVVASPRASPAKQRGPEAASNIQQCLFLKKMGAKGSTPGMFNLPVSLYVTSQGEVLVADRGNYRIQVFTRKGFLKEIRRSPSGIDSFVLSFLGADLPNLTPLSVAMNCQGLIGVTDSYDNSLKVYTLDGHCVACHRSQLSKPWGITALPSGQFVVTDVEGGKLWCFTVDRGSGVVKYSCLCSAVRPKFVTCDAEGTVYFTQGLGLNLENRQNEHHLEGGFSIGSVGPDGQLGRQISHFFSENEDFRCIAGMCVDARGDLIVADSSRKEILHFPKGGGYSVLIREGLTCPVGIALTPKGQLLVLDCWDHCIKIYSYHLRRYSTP
T8 sequence (O14543 whole entry, change not shown): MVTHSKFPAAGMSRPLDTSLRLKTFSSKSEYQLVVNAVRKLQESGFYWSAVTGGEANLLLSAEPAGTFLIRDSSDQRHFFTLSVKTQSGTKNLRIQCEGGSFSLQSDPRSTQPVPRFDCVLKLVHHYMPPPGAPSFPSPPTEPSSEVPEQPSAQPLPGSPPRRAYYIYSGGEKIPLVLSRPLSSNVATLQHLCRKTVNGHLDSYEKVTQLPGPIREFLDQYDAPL
T1 sequence (O43791 whole entry, change not shown): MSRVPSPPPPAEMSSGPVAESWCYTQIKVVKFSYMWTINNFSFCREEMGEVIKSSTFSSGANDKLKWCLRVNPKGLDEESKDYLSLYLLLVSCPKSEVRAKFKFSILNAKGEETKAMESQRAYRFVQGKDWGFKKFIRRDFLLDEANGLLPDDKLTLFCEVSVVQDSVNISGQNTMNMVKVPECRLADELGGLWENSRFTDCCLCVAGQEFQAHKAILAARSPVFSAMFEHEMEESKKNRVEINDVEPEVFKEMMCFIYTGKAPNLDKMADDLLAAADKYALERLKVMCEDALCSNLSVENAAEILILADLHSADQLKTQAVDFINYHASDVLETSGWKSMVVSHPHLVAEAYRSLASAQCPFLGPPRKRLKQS

## COc1ccc2c(c1)CCCN2C(=O)CCl [KB02]
[1]; read-out: percent_inhibition
  inhibition at 100 µM: 49%
[2]; read-out: KB02_100 uM_percent_inhibition
  inhibition at 100 µM: 23%
[3]; 100 uM
  percent inhibition: 32%
  inhibition at 100 µM: 38%
[3]; 500 uM
  percent inhibition: 32%
  inhibition at 500 µM: 46%
[4]
  inhibition at 500 µM: 17%
[5]; read-out: KB02_500 uM_percent_inhibition
  inhibition at 500 µM: 61%
[6]; 100 uM
  percent_inhibition: 20%
[6]; 100 uM, read-out: percent_inhibition
  inhibition at 100 µM: 31%
[7]
  percent_inhibition: 18%
  inhibition at 100 µM: 13%
[8]; read-out: percent_inhibition
  inhibition at 100 µM: 40%
[9]; 100 uM, read-out: KB02_100 uM_percent_inhibition
  inhibition at 100 µM: 1%

## C=CC(=O)N(c1ccccc1)c1ccc(Br)cc1 [KB05]
[10]
  KB05_500 uM_percent_inhibition: 75%
[2]; [12]
  inhibition at 100 µM: 33%
[2]; [13]
  inhibition at 500 µM: 36%
[3]; 100 uM
  inhibition at 100 µM: 25%
[3]; 500 uM
  percent inhibition: 56%
  inhibition at 500 µM: 47%
[4]
  inhibition at 500 µM: 24%
[6]; 500 uM, read-out: percent_inhibition
  inhibition at 500 µM: 28%
[11]; [12]
  inhibition at 100 µM: 5%
[7]
  percent_inhibition: 14%
  inhibition at 100 µM: 15%
[9]; 500 uM
  KB05_500 uM_percent_inhibition: 61%
[9]; [13]
  inhibition at 500 µM: 77%

## O=C(CCl)Nc1cc(C(F)(F)F)cc(C(F)(F)F)c1 [KBO3]
[10]
  KB03_500 uM_percent_inhibition: 79%
[1]; 100 uM
  percent_inhibition: 57%
[5]; 500 uM
  KB03_500 uM_percent_inhibition: 51%
[11]; 100 uM
  KB03_100 uM_percent_inhibition: 14%
[8]; 100 uM
  percent_inhibition: 91%
